What was measured:
[1] = Permeability in static Transwell system; details: human
Method: (§1) The human colonic adenocarcinoma Caco-2 cell line was obtained from the American Type Culture Collection (ATCC, Manassas, VA, USA), and the human colon adenocarcinoma mucus-secreting HT29-MTX-E12 cell line was obtained from the European Collection of Authenticated Cell Cultures (ECACC, Salisbury, UK). Caco-2 cells were used at passage numbers 29–40, and HT29-MTX-E12 cells were used at passage numbers 52–70 for all experiments. Cells were cultured in DMEM containing 10% FBS, 1% NEAA and 1% penicillin-streptomycin and maintained at 37 °C in a 5% CO2-humidified air atmosphere and subcultured every 2 days to 3 days similar to the study of Abdelkhaliq et al.. For permeability experiments, cells were seeded at a density of 40,000 cells/cm^2 on a polycarbonate Transwell insert (area 0.6 cm^2, 0.4 μm pore size; Millipore) as follows: Caco-2 and HT29-MTX-E12 cells were seeded in a 3:1 ratio on the apical side of the Transwell system and allowed to attach for 24 h. After 24 h, cell culture medium was refreshed every 2–3 days and Transwell systems were used for permeability experiments following 21 days of culturing.
(§2) HEPES is added because the experiments with the flow-through Transwell systems are performed outside of a CO2-controlled incubator, and for the sake of comparability, it is added to the static Transwell systems as well. […]

[2] = test system: monolayer of Caco-2/HT29-MTX cells; assay: Permeability in static Transwell system; details: static experiments, ergotamin(in)e 10 μg/mL apical
Method: as §1, §2

[3] = test system: monolayer of Caco-2/HT29-MTX cells; assay: Permeability in dynamic flow-through Transwell system, offline analysis; details: dynamic vs static, ergotamin(in)e 10 μg/mL
Method: as §1, §2

[4] = test system: Caco-2 and HT29-MTX-E12 cells (ratio 3:1)
Method: With the WST-1 assay, mitochondrial activity of the cell is measured by the conversion of WST-1 into formazan dye by mitochondrial dehydrogenase enzymes. The assay is performed as follows: Caco-2 and HT29-MTX-E12 cells (ratio 3:1) were seeded in Greiner Bio-One (Alphen aan den Rijn, The Netherlands) flat-bottom 96-well plates at a concentration of 1 × 10^5 cells/mL in cell culture medium (100 μL/well). Plates were incubated for 24 h at 37 °C under 5% CO2. […] Then, the exposure medium containing (dilutions of) the compounds of interest was discarded and the cells were washed with pre-warmed HBSS. Subsequently, WST-1 reagent (in cell culture medium without phenol red) was added to the cells (1:10, 100 μL/well). After 1.5 h of incubation at 37 °C, the absorbance of each well was measured at 440 nm using a Bio-Tek (Winooski, VT, USA) Synergy HT Multi-Mode microplate reader.

[5] = test system: monolayer of Caco-2/HT29-MTX cells
Method: as §1

[6] = test system: monolayer of Caco-2/HT29-MTX cells; assay: Lucifer yellow cell barrier integrity test; format: in vitro ADME, human; details: 500 μg/mL apical, 30 min, after permeability experiments (day 21); average
Method: Barrier integrity was evaluated similar to the study of Hubatsch et al., and cells were cultured on a Transwell membrane for 21 days and subsequently stained for tight junction protein ZO-1 and the cell nuclei. For this, the cells were washed with PBS and fixed with 4% paraformaldehyde (w/v) for 15 min. Cells were permeabilized with 0.25% Triton X-100 (v/v) and blocked with 1% BSA (w/v). The cells were then incubated with the conjugated antibody ZO-1/TJP1-Alexa Fluor 594 for 45 min (10 μg/mL). Subsequently, DAPI was used to stain the nuclei for 10 min (5 μg/mL). Between incubations, cells were washed with PBS three times. Cells were mounted in a 120-μm spacer (Sigma-Aldrich) on a microscope slide (Thermo Scientific) with ProLong Diamond Antifade Mountant. Slides were then examined using a Zeiss (Jena, Germany) LSM 510 META confocal microscope. Samples were excited with 405-nm and 543-nm lasers, and the pinholes were in the range of 90–94 μm at a magnification of × 40. Cell layer integrity was also evaluated using the transport marker Lucifer yellow. […] Cell culture medium was collected from the apical and basolateral sides at t = 0 and t = 30 min and analysed for fluorescence at 458 nm/530 nm using a Bio-Tek Synergy HT Multi-Mode microplate reader. […]

`CN1C[C@H](C(=O)N[C@]2(C)O[C@@]3(O)[C@@H]4CCCN4C(=O)[C@H](Cc4ccccc4)N3C2=O)C=C2c3cccc4[nH]cc(c34)C[C@H]21` [ergotamine] showed a Papp at 180 min, 10 μg/mL [1] of 8.6 ± 1.2 ×10⁻⁶ cm/s.
In the case of `CN1C[C@@H](C(=O)N[C@]2(C)O[C@@]3(O)[C@@H]4CCCN4C(=O)[C@H](Cc4ccccc4)N3C2=O)C=C2c3cccc4[nH]cc(c34)C[C@H]21` [ergotaminine], the apparent permeability coefficient [2] is reported as 50.2 ± 5.8 × 10^−6 cm/s and the “permeability, times lower in the dynamic experiments compared to the static experiments” value [3] is reported as 5 times.
In the case of `CN1C2CCCC1CC(NC(=O)c1nn(C)c3ccccc13)C2` (centres unmarked) [granisetron, Granisetron], the non-toxic concentration ([4]; human, 24 h) is reported as 10 µg/mL, the “cell-induced product formation on the basolateral side” value [5] is reported as “no cell-induced products were detected” and the “translocated across the in vitro intestinal barrier, cumulative % of the apical concentration” value ([5]; human, 3 h) is reported as 13.1%.
For Lucifer yellow, the “Lucifer yellow permeability (percentage of the apical concentration)” value [6] was 0.18% ± 0.06.
For Triton X-100, the cell viability ([4]; positive control, Triton X-100 0.25% v/v, percentage of negative control) was 0.4% ± 0.3.
